# According to article PMC10628300, “Dual function of OmpM as outer membrane tether and nutrient uptake channel in diderm Firmicutes” (Nature Communications, 2023):
# Experiments:
# EcOmpF = target: T1, EcOmpF (Escherichia coli, UniProt P02931); assay: proteoliposome swelling, decrease in A400; assay type: biochemical; settings: diffusive transport through general porin, no binding constant, 10 mM HEPES-NaOH pH 7.5, 12 mM stachyose inside
# T1 construct: gene ompF; full-length, untagged (pBAD24-EcOmpF), expressed in E. coli BL21(DE3), purified from outer membranes; trimer; reconstituted in liposomes
# T1 sequence (P02931 23-362): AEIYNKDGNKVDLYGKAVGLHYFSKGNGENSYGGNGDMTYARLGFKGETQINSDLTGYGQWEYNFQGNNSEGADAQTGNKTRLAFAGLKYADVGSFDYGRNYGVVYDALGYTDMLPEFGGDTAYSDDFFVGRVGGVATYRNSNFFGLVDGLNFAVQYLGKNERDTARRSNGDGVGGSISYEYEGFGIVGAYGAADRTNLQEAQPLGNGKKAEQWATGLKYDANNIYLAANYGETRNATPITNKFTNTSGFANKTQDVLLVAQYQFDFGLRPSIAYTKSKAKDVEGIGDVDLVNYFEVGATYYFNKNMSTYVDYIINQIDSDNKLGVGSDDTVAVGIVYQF
# [1] = target: T2, FNLLGLLA_00518 β-barrel (OmpA-like) (Veillonella parvula, UniProt A0AB38YQ02); assay: proteoliposome swelling, decrease in A400; assay type: biochemical; settings: diffusive transport through channel, no binding constant; much slower than VpOmpM1 and EcOmpF; 10 mM HEPES-NaOH pH 7.5, 12 mM stachyose inside
# T2 construct: gene CYJ21_000020; beta-barrel region, residues 21-200 (from plasmid name pB22-00518_21-200); TamB signal peptide and N-terminal His7; expressed in E. coli C43(DE3) delta-cyoABCD; reconstituted in liposomes
# VpOmpM1 (full-length) = target: T3, VpOmpM1 (full-length) (Veillonella parvula, UniProt A0A100YN03); assay: proteoliposome swelling, decrease in A400; assay type: biochemical; settings: diffusive transport through general porin, no binding constant; 10 mM HEPES-NaOH pH 7.5, 12 mM stachyose inside; rates normalised to EcOmpF with arabinose
# T3 construct: gene KHZ90_07665; full-length without native signal peptide; E. coli TamB signal peptide and N-terminal His7 added (pJW46); expressed in E. coli C43(DE3) delta-cyoABCD; homotrimer; reconstituted in liposomes
# [2] = target: VpOmpM1 (OmpM1 from Veillonella parvula), full-length, expressed in E. coli (Veillonella parvula); assay: cryo-EM structure; single particle; purified VpOmpM1 from E. coli (11.6 mg/ml) or V. parvula (8 mg/ml) in DM detergent, grids plunge-frozen at 4 °C; reconstructions without symmetry (C1) and with C3
# [3] = target: VpOmpM1 stalk construct (residues 22-107) (Veillonella parvula); assay: crystal structure; stalk construct 22-107 at ~20 mg/ml; 0.1 M citric acid pH 3.5, 2.0 M ammonium sulphate, 20 °C; three chains in the asymmetric unit
Compound,"proteoliposome swelling, decrease in A400 [1]","proteoliposome swelling, decrease in A400 (VpOmpM1 (full-length))",other results
OC1OC[C@H](O)[C@H](O)[C@H]1O (some centres unmarked) [arabinose],,,"proteoliposome swelling, decrease in A400 (EcOmpF; reference condition to which all rates are normalised): All data were normalized to EcOmpF-containing liposome swelling in the presence of arabinose"
NCC(=O)O [glycine],could only transport putrescine and glycine at much slower rates than VpOmpM1 and EcOmpF,,
C[C@H](O)C(=O)O [lactate],,"VpOmpM1 could transport lactate, which is essential for V. parvula growth, and putrescine",
NCCCCN [putrescine],could only transport putrescine and glycine at much slower rates than VpOmpM1 and EcOmpF,"VpOmpM1 could transport lactate, which is essential for V. parvula growth, and putrescine","proteoliposome swelling, decrease in A400 (EcOmpF; rates normalised to EcOmpF with arabinose): putrescine and glycine at much slower rates than VpOmpM1 and EcOmpF"
"VpOmpM1 (OmpM1 from Veillonella parvula), full-length, expressed in E. coli (natural protein)",,,stoichiometry N [2]: 3
VpOmpM1 stalk construct (residues 22-107) (domain or fragment),,,stoichiometry N [3]: 3
